# Experimental data published in ChEMBL document CHEMBL1144052, “Cytotoxic 3,4-secoapotirucallanes from Aaglaia argentea bark” (J Nat Prod, 1999).
# Calls of active or inactive are those of the source. The rule behind the calls is not given here.
# Tested on: KB
# Test: Cytotoxicity against human KB cells
# Type: functional, cell-based
Structure (SMILES),Activity,IC50
CC[C@@H](C)[C@@H](O)C(=O)O[C@@H]1C[C@]2(C)C(=CC[C@H]2[C@H]2CO[C@H](C=C(C)C)C2)[C@@]2(C)[C@H]1[C@@](C)(CCC(=O)O)[C@@H](C(C)(C)O)C[C@H]2OC(=O)[C@H](O)[C@H](C)CC,inactive,–
CC[C@@H](C)[C@@H](O)C(=O)O[C@@H]1C[C@]2(C)C(=CC[C@H]2[C@H]2CO[C@H](C=C(C)C)C2)[C@@]2(C)[C@H]1[C@@](C)(CCC(=O)OC)[C@@H](C(C)(C)O)C[C@H]2OC(=O)[C@H](O)[C@H](C)CC [ARGENTINIC ACID G METHYL ESTER],–,2.5 µg/mL
CC[C@@H](C)[C@@H](O)C(=O)O[C@@H]1C[C@]2(C)C(=CC[C@H]2[C@H]2CO[C@H](C=C(C)C)C2)[C@@]2(C)[C@H]1[C@@](C)(CCC(=O)O)[C@@H](C(C)(C)O)C[C@H]2OC(=O)[C@H](O)C(C)C,inactive,–
C/C=C(\C)[C@@H](O)C(=O)O[C@@H]1C[C@H](C(C)(C)O)[C@](C)(CCC(=O)OC)[C@H]2CC[C@]3(C)C(=CC[C@H]3[C@H]3CO[C@H](C=C(C)C)C3)[C@@]21C [ARGENTINIC ACID C METHYL ESTER],–,2 µg/mL
COC(=O)CC[C@@]1(C)[C@@H](C(C)(C)O)C[C@@H](OC(=O)[C@H](O)C(C)C)[C@@]2(C)C3=CC[C@@H]([C@H]4CO[C@H](C=C(C)C)C4)[C@]3(C)CC[C@H]12 [ARGENTINIC ACID B METHYL ESTER],–,2 µg/mL
C/C=C(/C)[C@@H](O)C(=O)O[C@@H]1C[C@H](C(C)(C)O)[C@](C)(CCC(=O)OC)[C@H]2[C@H](OC(=O)[C@H](O)/C(C)=C/C)C[C@]3(C)C(=CC[C@H]3[C@H]3CO[C@H](C=C(C)C)C3)[C@@]21C [ARGENTINIC ACID H METHYL ESTER],–,2 µg/mL
C/C=C(\C)[C@@H](O)C(=O)O[C@@H]1C[C@H](C(C)(C)O)[C@](C)(CCC(=O)O)[C@H]2[C@H](OC(=O)[C@H](O)[C@H](C)CC)C[C@]3(C)C(=CC[C@H]3[C@H]3CO[C@H](C=C(C)C)C3)[C@@]21C,inactive,–
C/C=C(/C)[C@@H](O)C(=O)O[C@@H]1C[C@H](C(C)(C)O)[C@](C)(CCC(=O)O)[C@H]2[C@H](OC(=O)[C@H](O)/C(C)=C/C)C[C@]3(C)C(=CC[C@H]3[C@H]3CO[C@H](C=C(C)C)C3)[C@@]21C,inactive,–
C/C=C(\C)[C@@H](O)C(=O)O[C@@H]1C[C@H](C(C)(C)O)[C@](C)(CCC(=O)O)[C@H]2[C@H](OC(=O)[C@H](O)C(C)C)C[C@]3(C)C(=CC[C@H]3[C@H]3CO[C@H](C=C(C)C)C3)[C@@]21C,inactive,–
CC[C@@H](C)[C@@H](O)C(=O)O[C@@H]1C[C@H](C(C)(C)O)[C@](C)(CCC(=O)OC)[C@H]2CC[C@]3(C)C(=CC[C@H]3[C@H]3CO[C@H](C=C(C)C)C3)[C@@]21C [ARGENTINIC ACID A METHYL ESTER],–,2 µg/mL
C/C=C(\C)[C@@H](O)C(=O)O[C@@H]1C[C@H](C(C)(C)O)[C@](C)(CCC(=O)OC)[C@H]2[C@H](OC(=O)[C@H](O)[C@H](C)CC)C[C@]3(C)C(=CC[C@H]3[C@H]3CO[C@H](C=C(C)C)C3)[C@@]21C [ARGENTINIC ACID D METHYL ESTER],–,1 µg/mL
CC[C@@H](C)[C@@H](O)C(=O)O[C@@H]1C[C@]2(C)C(=CC[C@H]2[C@H]2CO[C@H](C=C(C)C)C2)[C@@]2(C)[C@H]1[C@@](C)(CCC(=O)OC)[C@@H](C(C)(C)O)C[C@H]2OC(=O)[C@H](O)C(C)C [ARGENTINIC ACID F METHYL ESTER],–,2 µg/mL
CC[C@@H](C)[C@@H](O)C(=O)O[C@@H]1C[C@H](C(C)(C)O)[C@](C)(CCC(=O)O)[C@H]2CC[C@]3(C)C(=CC[C@H]3[C@H]3CO[C@H](C=C(C)C)C3)[C@@]21C,inactive,–
C/C=C(\C)[C@@H](O)C(=O)O[C@@H]1C[C@H](C(C)(C)O)[C@](C)(CCC(=O)OC)[C@H]2[C@H](OC(=O)[C@H](O)C(C)C)C[C@]3(C)C(=CC[C@H]3[C@H]3CO[C@H](C=C(C)C)C3)[C@@]21C [ARGENTINIC ACID E METHYL ESTER],–,3.5 µg/mL
C/C=C(\C)[C@@H](O)C(=O)O[C@@H]1C[C@H](C(C)(C)O)[C@](C)(CCC(=O)O)[C@H]2CC[C@]3(C)C(=CC[C@H]3[C@H]3CO[C@H](C=C(C)C)C3)[C@@]21C,inactive,–
CC(C)=C[C@@H]1C[C@@H]([C@@H]2CC=C3[C@@]4(C)[C@H](CC[C@]32C)[C@@](C)(CCC(=O)O)[C@@H](C(C)(C)O)C[C@H]4OC(=O)[C@H](O)C(C)C)CO1,inactive,–
